This is an account of results in patent US6635628B2, “Methods of administering camptothecin compounds for the treatment of cancer with reduced side effects” (The George Washington University, priority 1998, dated 2003).

Data set [1] concerns intestinal cells from whole small-intestine. Kind of data set: Uptake of 14C-labeled CPT-11 and SN-38 by intestinal cells, regions combined or not distinguished (TCA, pH, bicarbonate effects). The method, then:
By adding the drugs to Hank's solution containing intestinal cells from whole small-intestine, uptake studies were performed.
Intestinal cells were isolated as previously described (28, 29). Briefly, male hamsters were anesthetized with sodium pentobarbital (Nembutol 70 mg/kg body weight). The entire intestine was removed. The intestinal lumen was washed with 37° C. Hank's solution. Sacs of the ileum (12.5 cm from cecum) and jejunum (remaining small intestine) were rinsed, as well as the intestinal sacs of the anal site of small intestine (12.5 cm from cecum) and oral site (the other small intestine). The sacs were rinsed with oxygenated buffer solution containing sodium citrate (96 mM NaCl, 1.5 mM KCl, 5.6 mM KH2PO4, 27 mM sodium citrate, pH 7.3), and incubated for 10 min in the same buffer at 37° C. The sacs were then emptied, filled with oxygenated buffer solution containing EDTA (140 mM NaCl, 16 mM Na2HPO4, 2 mM EDTA, 0.5 mM dithiothreitol, pH 7.3), incubated for 10 min at 37° C. Then each sac was placed onto a petri dish and gently vortexed for 1 min. The buffer containing intestinal cells was recovered in 50 mL of Hanks' solution, washed twice and adjusted at 10^6 cells/ml in Hanks' medium (cellular stock solution containing 0.5% bovine serum albumin, pH 7.4).
The cellular suspension of 0.95 ml was incubated for 15 min in a 37° C. water bath with stirring. Uptake was started by the addition of 0.05 ml PBS (at pH 3 or 9) containing labeled SN-38 or CPT-11 at 37° C. At various time intervals, 100 μL, sample aliquots were diluted into 3 mL of Hank's medium at 4° C. to stop the uptake. The stop solution containing the cells was filtered through a glass microfiber filter (Glass Fiber Filter Circles G4, Fisherbrand, Pa.) under vacuum (20 psi). The cells were washed once with 5 mL of 0.5% bovine serum albumin-containing Hanks' medium (4° C.) and once with 20 mL of Hanks' solution (4° C.). The filters were placed in a vial containing 4 mL of scintillation liquid (Ultra Gold, Packard, Conn.) and the radioactivity was counted in a β scintillation counter (LS3801, Beckman, Md.).
The effect of the metabolic inhibitor, 2,4 dinitrophenol (1 mM), was studied by adding this agent to the cells 3 min prior to either ^14C-CPT-11 or ^14C-SN-38 (2 μM). The effect of 20 mM of taurocholic acid (TCA) on the uptake of both CPT-11 and SN-38 was investigated following overnight incubation of ^14C-CPT-11 (20 μM) and ^14C-SN-38 (2 μM) in Hank's solution, at pH 7.4 and in the presence and absence of TCA. The effect of 200 μM of DNP-SG or SN-38-Glu was also studied by adding these agents to the cell preparation 7 min prior to either ^14C-CPT-11 (20 μM) and ^14C-SN-38 (2 μM).
The effect of physiologic pH on the initial intestinal uptake rate of CPT-11 and SN-38 was investigated following overnight incubation of ^14C-CPT-11 (20 μM) and ^14C-SN-38 (2 μM) in phosphate buffered saline at pH 6.2, 6.8, 7.4 and 8, respectively.
The initial rate of uptake of CPT-11 or SN-38 was derived from the linear regression analysis of the respective regression line obtained from the plot of the uptake as a function of time. The initial rates of uptake were plotted against the corresponding concentration. The data were fitted by least-squares nonlinear regression analysis (SigmaStat, Jandel Scientific, CA), using the equation V=(Vmax·S)/(Km+S)+Kd·S where V represents the initial rate of uptake. Vmax is the maximum rate of uptake, Km is the apparent Michaelis constant, Kd is the rate of diffusion and S is the concentration of CPT-11 or SN-38.

Data set [2] concerns HT29 cells. Kind of data set: Initial uptake rate of [14C]SN-38 by HT29 cells as a function of pH. In kind it is in vitro ADME. The method, then:
The uptake study was initiated by adding the compounds to Hanks' solution containing HT29 cells. The comparative initial rate of uptake as function of pH was analyzed by Kruskal-Wallis test (p<0.001) and Dunn's method (*p<0.05).
Uptake of ^14C-labeled CPT-11 and SN-38 was measured by rapid vacuum filtration assay (28, 29).

Data set [3] has as its system HT29 cells. Kind of data set: Cytotoxicity assay (MTT, mitochondrial dehydrogenase activity) in HT29 cells. In kind it is cell-based. To be noted: 0.4 μM SN-38; 24 h exposure, 24 h drug-free; pH 6.2, 6.8, 7.4, 8.0. How it is done:
Rapid colorimetric assay for mitochondrial dehydrogenase activity was modified and used for the estimation of cytotoxicity of SN-38 (Mosmann, 1983). […] After 24 h-exposure, the cells were washed twice, and subjected to a drug-free incubation for 24 h. Then, the cells were incubated with 0.5 mg/ml 3-(4,5-dimethylthiazol-2-yl)-2,5-diphenyl-tetrazolium bromide (MTT) for 4 h, and the blue formazan crystals were solubilized by addition of 10% n-dodecylsulfate sodium salt (SDS) in 0.1N HCl and overnight incubation. The formation of the blue formazan compound is spectrophotometrically determined at 560 nm (Ultraspec 4050, LKB, Bromma, Sweden).

The next data set can be described thus: Solubility in water. In kind it is physicochemical.
The conditions of data set [4]: cited from earlier work.
The conditions of data set [5]: rat; 24 h after IV injection of 14C-SN-38; cited from earlier work.
For data set [6] the following is noted: bile of two men treated by cisplatin who received CPT-11 intravenously; cited from earlier work.
The format of data set [7] is physicochemical. To be noted: 1,000-molecular weight cut-off membrane. The source says: Monomers were separated from micellar aggregates by ultrafiltration through a 1000-molecular weight cut-off membrane (YM1) as described in Materials and Methods. Values are the monomeric forms of the indicated metabolites, expressed as a percentage (%) of the concentration of the initial solution before ultrafiltration. Comparison between TCA and control was estimated by Mann-Whitney test. […] Abbreviations used: CPT lactone (CPT lact.); CPT carboxylate (CPT carb.); SN-38 lactone (SN lact.); and SN-38 carboxylate (SN carb.).

Another data set has as its target T1, topoisomerase I (Homo sapiens, UniProt P11387).
T1 sequence (P11387 1-765): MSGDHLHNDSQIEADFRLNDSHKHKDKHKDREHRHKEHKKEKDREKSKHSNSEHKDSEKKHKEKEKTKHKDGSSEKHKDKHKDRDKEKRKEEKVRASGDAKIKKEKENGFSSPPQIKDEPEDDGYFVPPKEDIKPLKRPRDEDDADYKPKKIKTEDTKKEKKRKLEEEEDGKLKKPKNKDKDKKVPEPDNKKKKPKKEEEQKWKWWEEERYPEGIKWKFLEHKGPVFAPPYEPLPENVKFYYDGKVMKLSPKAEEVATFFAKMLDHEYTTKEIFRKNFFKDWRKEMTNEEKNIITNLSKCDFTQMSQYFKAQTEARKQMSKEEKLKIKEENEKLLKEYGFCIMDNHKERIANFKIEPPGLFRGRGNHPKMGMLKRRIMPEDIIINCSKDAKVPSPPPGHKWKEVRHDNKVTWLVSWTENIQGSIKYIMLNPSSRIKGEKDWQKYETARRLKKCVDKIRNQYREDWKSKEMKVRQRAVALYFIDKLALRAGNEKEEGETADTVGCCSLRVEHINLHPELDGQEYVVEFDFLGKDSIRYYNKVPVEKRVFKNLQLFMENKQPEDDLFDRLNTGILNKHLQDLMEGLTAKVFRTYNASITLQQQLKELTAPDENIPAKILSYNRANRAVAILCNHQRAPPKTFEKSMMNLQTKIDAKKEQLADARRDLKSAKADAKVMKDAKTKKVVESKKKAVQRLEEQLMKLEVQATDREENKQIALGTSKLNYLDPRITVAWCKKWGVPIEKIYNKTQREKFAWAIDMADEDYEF
To be noted: cited from earlier work.

In the case of `CCc1c2c(nc3ccc(O)cc13)-c1cc3c(c(=O)n1C2)COC(=O)[C@]3(O)CC` [SN-38, 7-ethyl-10-hydroxy-camptothecin], the “initial uptake rate at acidic pH (pH 6.2 and 6.8) versus neutral or alkaline pH (pH 7.4 and 8)” value in data set [1] was “several times greater”. The “initial uptake rate in the presence of 20 mM TCA” value in data set [1] (cells from jejunum and ileum combined, 14C-CPT-11 20 μM, 14C-SN-38 2 μM, pH 7.4, mean±SD, n=5) is given as 69.3±12.7 % of control without TCA. Moreover, the “decrease of the uptake rate at a pH greater than 6.8” value in data set [1] (pH 6.2) is “around 65%”. Also, the “uptake when HEPES of the Hank's buffer was replaced by sodium bicarbonate” value in data set [1] (pH adjusted to greater than 7) is listed as “decreased”. In the data set with HT29 cells [2], the “initial rate of uptake in HT-29 cells compared with isolated hamster intestinal cells” value is “lower in HT-29 cells than in isolated hamster intestinal cells”. The “uptake rate in HT29 cells as a function of pH” value in the data set on HT29 cells [2] (2 μM [14C]SN-38, pH 6.2, 6.8, 7.4, 8.0) was “significantly greater at pH 6.2 and 6.8, than at pH 7.4 and 8.0”. Further, in the data set with HT29 cells [3], the “cytotoxicity for HT29 cells as a function of pH” value was “significantly higher at pH 6.2 and 6.8 than at pH 7.4 and 8.0”. Besides, in the data set “Solubility in water”, the solubility in water result is recorded as “poorly soluble in water”. Moreover, in data set [4], the “share in lactone form at pH 7.4” value is recorded as 13%. The distribution of radioactivity result in data set [5] is given as “found exclusively in the gastrointestinal tract”. In addition, the “share of the biliary content” value in [6] is on record as 0.9-3.3%.
For `CCc1c2c(nc3ccc(O)cc13)-c1cc([C@@](O)(CC)C(=O)O)c(CO)c(=O)n1C2` [SN-38 carboxylate], the “transport mechanism in intestinal cells” value in data set [1] is recorded as “actively absorbed”. Besides, the “saturability of the uptake (predominant component)” value in [1] (jejunal and ileal cells, SN-38 concentrations lower than 2 μM) is “mostly non-saturable”. Further, the “effect of TCA on % monomer concentration / association to TCA micelles” value in data set [7] is on record as “did not significantly associate to TCA micelles”. The “topoisomerase I-inhibitory activity” value at topoisomerase I is reported as “only minor”.
